The text below walks through data of patent US11708359B2, “Monoacylglycerol lipase modulators” (Janssen Pharmaceutica NV, priority 2020, dated 2023).

In the assay the target is human MGL from HeLa cells (Homo sapiens (Human), UniProt Q99685). Put plainly: MGL in vitro activity assay ([glycerol-1,3-3H]-oleoyl glycerol cleavage, activated carbon filter). The class given is biochemical. Particulars: 300 nM [Glycerol-1,3-3H]-oleoyl glycerol, endogenously expressed MGL from HeLa cells, one hour incubation; read-out: MGL IC50. The protocol:
The assay consists of combining endogenously expressed MGL from HeLa cells with test compounds, adding[glycerol-1,3-^3H]-oleoyl glycerol, incubating for one hour, and then measuring the amount of cleaved[1,3-^3H]-glycerol that passes through an activated carbon filter. The amount of cleaved, tritiated glycerol passing through the carbon filter is proportional to the activity of the MGL enzyme in a particular well/test condition.
Standard conditions for this assay combine 300 nM [Glycerol-1,3-^3H]-oleoyl glycerol with human MGL from HeLa cells and test compounds for one hour, after which the reaction is filtered through activated carbon and tritium is measured in the flow through. […] MGL is the predominant hydrolase in HeLa cells/cell homogenates.

Chain of human MGL from HeLa cells (Q99685 whole entry): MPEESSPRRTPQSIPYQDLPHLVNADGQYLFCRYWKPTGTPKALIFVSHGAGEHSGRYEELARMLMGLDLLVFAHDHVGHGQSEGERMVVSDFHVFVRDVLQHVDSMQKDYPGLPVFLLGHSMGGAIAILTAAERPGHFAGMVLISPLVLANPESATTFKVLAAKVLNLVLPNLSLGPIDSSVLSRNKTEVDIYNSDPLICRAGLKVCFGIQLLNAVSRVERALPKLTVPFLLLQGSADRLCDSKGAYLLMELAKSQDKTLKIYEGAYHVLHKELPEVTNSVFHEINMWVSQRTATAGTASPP

As a reminder, the IC50 is the concentration at which inhibition is half-maximal. Consider `O=C1CCC2(CC(C(=O)N3CC[C@@]4(c5cccc(OC(F)(F)F)c5)C[C@H]4C3)C2)N1` (relative stereo) [Example 119, (2r,4*5)-2-((1*R,6*5)-6-(3-(Trifluoromethoxy)phenyl)-3-azabicyclo[4.1.0]heptane-3-carbonyl)-5-azaspiro[3.4]octan-6-one], for which the IC50 is 5.2 nM.
To `O=C1CCC2(CC(C(=O)N3CC[C@]4(c5cccc(OC(F)(F)F)c5)C[C@@H]4C3)C2)N1` (relative stereo) [Example 120, (2r,4*R)-2-((1*S,6*R)-6-(3-(Trifluoromethoxy)phenyl)-3-azabicyclo[4.1.0]heptane-3-carbonyl)-5-azaspiro[3.4]octan-6-one] belongs 23 nM; to `O=C1CCC2(CC(C(=O)N3CC[C@@]4(c5ccc(OC(F)(F)F)cc5)C[C@H]4C3)C2)N1` (relative stereo) [Example 121, (2r,4*5)-2-((1*R,6*S)-6-(4-(Trifluoromethoxy)phenyl)-3-azabicyclo[4.1.0]heptane-3-carbonyl)-5-azaspiro[3.4]octan-6-one], 42 nM.
To `O=C1CCC2(CC(C(=O)N3CC[C@]4(c5ccc(OC(F)(F)F)cc5)C[C@@H]4C3)C2)N1` (relative stereo) [Example 122, (2r,4*R)-2-((1*S,6*R)-6-(4-(Trifluoromethoxy)phenyl)-3-azabicyclo[4.1.0]heptane-3-carbonyl)-5-azaspiro[3.4]octan-6-one] belongs 12 nM; to `CC(C)c1cccc([C@@]23C[C@@H]2CN(C(=O)[C@H]2C[C@]4(COC(=O)N4)C2)C3)c1` (stereo in doubt) [Example 7, (2s,4*5)-2-((1*R,5*5)-1-(3-Isopropylphenyl)-3-azabicyclo[3.1.0]hexane-3-carbonyl)-7-oxa-5-azaspiro[3.4]octan-6-one], 5 nM.
Consider `CC(C)c1cccc([C@]23C[C@H]2CN(C(=O)[C@H]2C[C@]4(COC(=O)N4)C2)C3)c1` (stereo in doubt) [Example 8, (2s,4*R)-2-((1*S,5*R)-1-(3-Isopropylphenyl)-3-azabicyclo[3.1.0]hexane-3-carbonyl)-7-oxa-5-azaspiro[3.4]octan-6-one], for which the 50% inhibitory concentration (IC50) was 11 nM.
The same measure for `CC(C)c1ccc([C@@]23C[C@@H]2CN(C(=O)[C@H]2C[C@]4(COC(=O)N4)C2)C3)cc1` (stereo in doubt) [Example 10, (2s,4*5)-2-((1*R,5*S)-1-(4-Isopropylphenyl)-3-azabicyclo[3.1.0]hexane-3-carbonyl)-7-oxa-5-azaspiro[3.4]octan-6-one]: 2.3 nM.
In the case of `CC(C)c1ccc([C@]23C[C@H]2CN(C(=O)[C@H]2C[C@]4(COC(=O)N4)C2)C3)cc1` (stereo in doubt) [Example 11, (2s,4*R)-2-((1*S,5*R)-1-(4-Isopropylphenyl)-3-azabicyclo[3.1.0]hexane-3-carbonyl)-7-oxa-5-azaspiro[3.4]octan-6-one], the half-maximal inhibitory concentration (IC50) was 2.3 nM.
To `CC(C)(C)c1ccc([C@@]23C[C@@H]2CN(C(=O)[C@H]2C[C@]4(CCC(=O)N4)C2)C3)cc1` (stereo in doubt) [Example 14, (2r,4*S)-2-((1*R,5*5)-1-(4-(tert-Butyl)phenyl)-3-azabicyclo[3.1.0]hexane-3-carbonyl)-5-azaspiro[3.4]octan-6-one] belongs 23 nM.
The same measure for `CC(C)(C)c1ccc([C@]23C[C@H]2CN(C(=O)[C@H]2C[C@]4(CCC(=O)N4)C2)C3)cc1` (stereo in doubt) [Example 15, (2r,4*R)-2-((1*S,5*R)-1-(4-(tert-Butyl)phenyl)-3-azabicyclo[3.1.0]hexane-3-carbonyl)-5-azaspiro[3.4]octan-6-one]: 12 nM.
The same measure for `Cc1cccc([C@]23CCN(C(=O)[C@H]4C[C@]5(COC(=O)N5)C4)C[C@H]2C3)c1` (stereo in doubt) [Example 44, (2s,4*R)-2-((1*S,6*R)-6-(m-Tolyl)-3-azabicyclo[4.1.0]heptane-3-carbonyl)-7-oxa-5-azaspiro[3.4]octan-6-one]: 2.8 nM.
As for `Cc1cccc([C@@]23CCN(C(=O)[C@H]4C[C@]5(COC(=O)N5)C4)C[C@@H]2C3)c1` (stereo in doubt) [Example 45, (2s,4*5)-2-((1*R,6*S)-6-(m-Tolyl)-3-azabicyclo[4.1.0]heptane-3-carbonyl)-7-oxa-5-azaspiro[3.4]octan-6-one], the IC50 was 32 nM.
To `Cc1ccc([C@]23CCN(C(=O)[C@H]4C[C@]5(COC(=O)N5)C4)C[C@H]2C3)cc1F` (stereo in doubt) [Example 47, (2s,4*R)-2-((1*S,6*R)-6-(3-Fluoro-4-methylphenyl)-3-azabicyclo[4.1.0]heptane-3-carbonyl)-7-oxa-5-azaspiro[3.4]octan-6-one] belongs 21 nM; to `Cc1ccc([C@@]23CCN(C(=O)[C@H]4C[C@]5(COC(=O)N5)C4)C[C@@H]2C3)cc1F` (stereo in doubt) [Example 48, (2s,4*5)-2-((1*R,6*5)-6-(3-Fluoro-4-methylphenyl)-3-azabicyclo[4.1.0]heptane-3-carbonyl)-7-oxa-5-azaspiro[3.4]octan-6-one], 1.3 nM; to `O=C1N[C@]2(CO1)C[C@H](C(=O)N1CC[C@]3(c4cccc(OC(F)(F)F)c4)C[C@@H]3C1)C2` (stereo in doubt) [Example 50, (2s,4*R)-2-((1*S,6*R)-6-(3-(Trifluoromethoxy)phenyl)-3-azabicyclo[4.1.0]heptane-3-carbonyl)-7-oxa-5-azaspiro[3.4]octan-6-one], 4.2 nM.
The same measure for `O=C1N[C@]2(CO1)C[C@H](C(=O)N1CC[C@@]3(c4cccc(OC(F)(F)F)c4)C[C@H]3C1)C2` (stereo in doubt) [Example 51, (2s,4*S)-2-((1*R,6*S)-6-(3-(Trifluoromethoxy)phenyl)-3-azabicyclo[4.1.0]heptane-3-carbonyl)-7-oxa-5-azaspiro[3.4]octan-6-one]: 0.52 nM.
The same measure for `CC(C)(C)c1cccc([C@H]2[C@@H]3CN(C(=O)[C@H]4C[C@]5(COC(=O)N5)C4)C[C@@]32C)c1` (stereo in doubt) [Example 93, (rac)-(2s,4*5)-2-((1*R,5*S,6*R)-6-(3-(tert-Butyl)phenyl)-1-methyl-3-azabicyclo[3.1.0]hexane-3-carbonyl)-7-oxa-5-azaspiro[3.4]octan-6-one]: 0.76 nM; for `CC1(c2ccc([C@@]34C[C@@H]3CN(C(=O)[C@H]3C[C@]5(CCC(=O)N5)C3)C4)cc2)CC1` (stereo in doubt) [Example 95, (2r,4*S)-2-((1*R,5*5)-1-(4-(1-Methylcyclopropyl)phenyl)-3-azabicyclo[3.1.0]hexane-3-carbonyl)-5-azaspiro[3.4]octan-6-one]: 7.5 nM.
In the case of `CC1(c2ccc([C@]34C[C@H]3CN(C(=O)[C@H]3C[C@]5(CCC(=O)N5)C3)C4)cc2)CC1` (stereo in doubt) [Example 96, (2r,4*R)-2-((1*S,5*R)-1-(4-(1-Methylcyclopropyl)phenyl)-3-azabicyclo[3.1.0]hexane-3-carbonyl)-5-azaspiro[3.4]octan-6-one], the half-inhibitory concentration (IC50) was 8.5 nM.
In the case of `CC(C)(C)c1cccc([C@H]2[C@@H]3CN(C(=O)[C@H]4C[C@]5(COC(=O)N5)C4)C[C@@]32C)c1` (stereo in doubt) [Example 99, (2s,4*5)-2-((1*R,5*S,6*R)-6-(3-(tert-Butyl)phenyl)-1-methyl-3-azabicyclo[3.1.0]hexane-3-carbonyl)-7-oxa-5-azaspiro[3.4]octan-6-one], the IC50 was 0.64 nM.
The same measure for `CC(C)(C)c1cccc([C@@H]2[C@H]3CN(C(=O)[C@H]4C[C@]5(COC(=O)N5)C4)C[C@]32C)c1` (stereo in doubt) [Example 100, (2s,4*R)-2-((1*S,5*R,6*5)-6-(3-(tert-Butyl)phenyl)-1-methyl-3-azabicyclo[3.1.0]hexane-3-carbonyl)-7-oxa-5-azaspiro[3.4]octan-6-one]: 8.3 nM; for `O=C1N[C@]2(CO1)C[C@H](C(=O)N1C[C@@H]3[C@H](C1)[C@H]3c1cccc(OC(F)(F)F)c1)C2` [Example 38, (2s,4S)-2-((1R,5S,6S)-6-(3-(Trifluoromethoxy)phenyl)-3-azabicyclo[3.1.0]hexane-3-carbonyl)-7-oxa-5-azaspiro[3.4]octan-6-one]: 21 nM; for `O=C1N[C@]2(CO1)C[C@H](C(=O)N1CC[C@@]3(c4ccccc4)C[C@H]3C1)C2` [Example 40, (2s,4S)-2-((1R,6S)-6-Phenyl-3-azabicyclo[4.1.0]heptane-3-carbonyl)-7-oxa-5-azaspiro[3.4]octan-6-one]: 136 nM.
To `O=C1N[C@]2(CO1)C[C@H](C(=O)N1CC[C@]3(c4ccccc4)C[C@@H]3C1)C2` [Example 41, (2s,4R)-2-((1S,6R)-6-Phenyl-3-azabicyclo[4.1.0]heptane-3-carbonyl)-7-oxa-5-azaspiro[3.4]octan-6-one] belongs 9.6 nM.
`CC(C)(C)c1cccc([C@H]2[C@@H]3CN(C(=O)[C@H]4C[C@]5(CCC(=O)N5)C4)C[C@@H]32)c1` [Example 79, (2r,4S)-2-((1R,5S,6S)-6-(3-(tert-Butyl)phenyl)-3-azabicyclo[3.1.0]hexane-3-carbonyl)-5-azaspiro[3.4]octan-6-one]: the half-maximal inhibitory concentration (IC50) amounted to 7.2 nM.
To `O=C1N[C@]2(CO1)C[C@H](C(=O)N1C[C@@H]3[C@H](C1)[C@H]3c1ccc(C(F)(F)F)cc1)C2` [Example 80, (2s,4S)-2-((1R,5S,6S)-6-(4-(Trifluoromethyl)phenyl)-3-azabicyclo[3.1.0]hexane-3-carbonyl)-7-oxa-5-azaspiro[3.4]octan-6-one] belongs 33 nM.
